# Measurements reported in patent publication US20100063127A1, “Antioxidant Properties of Tryptophan from Human Milk” (priority 2008, published 2010).
# Tested on: TNFα
# Assay: Effect on TNFα expression, cell based immunoassay in RAW 264.7 cells
# Set-up: species or system mouse
# Protocol: This was carried out using a cell based immunoassay using mouse monocyte/macrophage cells (RAW 264.7; ATCC American Tissue Culture Collection). The experiment was done in triplicates. The data were analyzed by t-test. […] Based on this tryptophan is an ant-inflammatory amino acid.
smiles,measurement,setting,value
N[C@@H](Cc1c[nH]c2ccccc12)C(=O)O [Tryptophan],TNFα,"Tryptophan 50 μg/ml, control Medium + LPS 1 μg/ml 6156, triplicates",4869 pg/mL
same,"TNFα, treated value versus control value (t-test)",p<0.05,significant difference
